Residue numbers refer to the chain shown, from its start.
Assays:
[1] = molecular target: T1, GKRP-WT (Homo sapiens, UniProt Q14397); experiment: Ligand binding to free GKRP-WT measured by TF of GKRP; conditions: ligand alone
T1 construct: FLAG; made in house; host or cells: Escherichia coli
T1 sequence (Q14397 1-625): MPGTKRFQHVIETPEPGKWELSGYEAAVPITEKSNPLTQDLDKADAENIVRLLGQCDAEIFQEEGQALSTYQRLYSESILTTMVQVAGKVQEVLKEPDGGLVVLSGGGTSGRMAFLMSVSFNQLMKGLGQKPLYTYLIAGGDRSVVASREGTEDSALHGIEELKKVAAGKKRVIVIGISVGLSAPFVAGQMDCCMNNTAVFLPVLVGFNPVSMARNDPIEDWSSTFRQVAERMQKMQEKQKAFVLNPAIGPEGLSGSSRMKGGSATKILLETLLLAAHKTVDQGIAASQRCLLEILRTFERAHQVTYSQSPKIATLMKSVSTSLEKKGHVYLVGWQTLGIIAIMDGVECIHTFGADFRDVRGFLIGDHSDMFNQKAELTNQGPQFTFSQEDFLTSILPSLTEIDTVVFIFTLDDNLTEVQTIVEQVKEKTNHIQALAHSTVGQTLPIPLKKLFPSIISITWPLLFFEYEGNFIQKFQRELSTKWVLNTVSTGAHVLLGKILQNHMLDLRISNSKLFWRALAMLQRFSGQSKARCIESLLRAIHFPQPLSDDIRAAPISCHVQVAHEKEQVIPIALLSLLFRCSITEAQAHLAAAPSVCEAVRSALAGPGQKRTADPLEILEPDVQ

[2] = molecular target: T2, hGKRP (0.3 μM)–GK-W99R/W167F/W257F (1 μM) complex, GKRP-WT (Homo sapiens, UniProt P35557+Q14397, W167F/W257F/W99R); experiment: Ligand binding by / disassembly of GKRP-WT–GK-W99R/W167F/W257F complex by TF of hGKRP
T2 construct: FLAG; GST (cleaved yes); made in house; host or cells: Escherichia coli
T2 sequence (Q14397 1-625): T1 sequence (Q14397 1-625)
T2 sequence (P35557 1-465 W99R/W167F/W257F): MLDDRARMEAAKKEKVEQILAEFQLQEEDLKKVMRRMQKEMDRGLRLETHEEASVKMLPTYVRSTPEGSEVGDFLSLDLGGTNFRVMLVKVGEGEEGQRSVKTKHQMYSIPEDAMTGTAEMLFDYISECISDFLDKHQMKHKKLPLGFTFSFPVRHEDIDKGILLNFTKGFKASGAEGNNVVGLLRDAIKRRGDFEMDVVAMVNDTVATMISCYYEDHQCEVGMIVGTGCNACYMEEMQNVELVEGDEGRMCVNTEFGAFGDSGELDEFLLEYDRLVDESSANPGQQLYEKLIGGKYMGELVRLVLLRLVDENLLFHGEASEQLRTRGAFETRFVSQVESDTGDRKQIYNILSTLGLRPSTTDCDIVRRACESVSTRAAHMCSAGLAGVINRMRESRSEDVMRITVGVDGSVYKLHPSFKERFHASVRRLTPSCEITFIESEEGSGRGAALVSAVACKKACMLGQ
Method: Spectra were measured with a Fluorolog-3-21 Jobin-Yvon Spex Instrument SA equipped with a 450 W Xenon lamp for excitation and a cooled R2658P Hamamatsu photomultiplier tube for detection. For all measurements, 90° geometry was employed and 295 nm excitation wavelengths were used to observe fluorescence emission in the 300–500 nm range. For TF, spectra slit width was set to provide a bandpath of 3 nm for excitation and 3 nm for emission. Spectra were corrected for instrumental response using Spex instrument software. A thermostatically controlled cell holder maintained sample temperature at 20°C. A thermocoupler was used to measure sample temperature. The buffer used contained 20 mM phosphate, 50 mM KCl, 1 mM EDTA and 1 mM DTT (pH 7.2).
Fluorescence data were obtained via the stepwise addition of the appropriate amount of non-fluorescent GK-W99R/W167F/W257F to GKRP in a fluorescence cuvette. […] The change in GKRP protein fluorescence during titration was also measured using time-dependent scans. A manual procedure was used such that a typical titration with 10–12 additions required 20–25 min to perform. The same buffer as described above was routinely used unless stated otherwise. The bandpath was 0.5 nm at 295 nm for excitation and 12 nm at 340 nm for emission. […] For some graphical presentations the linear form of the Hill equation was used: log[F/(Fsat−F)]=H log x−H log KD [46].

[3] = molecular target: T3, GK-W99R/W167F/W257F (Homo sapiens, UniProt P35557, W167F/W257F/W99R); experiment: Glucose binding to unbound GK-W99R/W167F/W257F
T3 construct: GST (cleaved yes); made in house; host or cells: Escherichia coli
T3 sequence (P35557 1-465 W99R/W167F/W257F): T2 sequence (P35557 1-465 W99R/W167F/W257F)

[4] = molecular target: T3, GK-W99R/W167F/W257F; parameters: method as in ref 4 (a number printed in a supplementary file, which may have a reference list of its own: not looked up in the article's list); conditions: cited from earlier work
[5] = molecular target: T4, GK-WT (Homo sapiens, UniProt P35557); parameters: method as in ref 4 (a number printed in a supplementary file, which may have a reference list of its own: not looked up in the article's list); conditions: cited from earlier work
T4 construct: GST (cleaved yes); made in house; host or cells: Escherichia coli
T4 sequence (P35557 1-465): T2 sequence (P35557 1-465 W99R/W167F/W257F) with R99W, F167W, F257W

[6] = addition of 6.6 mM D-glucose, 0.3 μM GKRP and 1 μM GK, pH 7.2, mono ExpDecay fit
[7] = ligand titration of 3:1 GK–GKRP-WT complex, 20°C

ΔF (relative fluorescence change at 340 nm) ([1]; 0.3 μM GKRP-WT, 20°C): 0 | effect on the TF signal of GKRP-WT [1]: no effect | A (amplitude) of time-dependent decrease in GKRP-WT TF [2, 6]: 0.04 | τ of time-dependent decrease in GKRP-WT TF [2, 6]: 11 s | H [2, 7]: 1 | ΔF (relative fluorescence change at 340 nm) [2, 7]: −0.065 | Kd ([2]; ligand titration of 3:1 GK–GKRP-WT complex, 20°C, read-out: Kd (apparent)): 12 mM | Kd [3]: 5 mM
SMILES: OC[C@H]1OC(O)[C@H](O)[C@@H](O)[C@@H]1O (stereo partly drawn) [D-Glucose, D-glucose]
H (glucose) [4]: 1.45 | glucose S0.5 [4]: 4.8 mM | H (glucose) [5]: 1.77 | glucose S0.5 [5]: 7.5 mM

— article PMC4109836, “Analysis of the co-operative interaction between the allosterically regulated proteins GK and GKRP using tryptophan fluorescence” (Biochemical Journal, 2014)
